Experimental findings from patent US12044680B2, “Peptide exchange system and method” (priority 2016, dated 2024) are described below.

Like-named read-outs stand apart in the source and are kept apart here. Ends that are not written are not given here. * marks the point of attachment. DNP = dinitrophenol (DNP) tag on lysine, O=[N+]([O-])c1ccc(*)c([N+](=O)[O-])c1; Dnp = O=[N+]([O-])c1ccc(*)c([N+](=O)[O-])c1

The target of assay [1] is T1, HLA-A*02:01 tetramers with exiting peptide ILKEKK(DNP)VHGV (Homo sapiens, UniProt P04439, D140Y/D185E/D98H/E176V/E277Q/G131W/G231S/I119V/I121R/I166T/I218V/L300P/L318F/N151K/N90K/P208A/P217A/Q86G/Q94H/R138H/R169H/T345S).
T1 construct: prepared as known in the art, for instance by deletion of the transmembrane domain and the cytoplasmic domain; made in house
The experiment in a line: HLA-A*02:01 peptide exchange quantitation. It counts as binding. Conditions: entering peptide 20 μM final, 4 hours; HLA-A*02:01 tetramer. The procedure:
Peptide Exchange Procedure: 50 μL of the tetramer solution is combined with 1 μL of peptide exchange factor, such as glycyl methionine, (resulting in a final peptide exchange factor concentration of 5-20 mM) and 1 μL of the peptide solution and the resulting solution was mixed, then incubated at room temperature for four hours.
Sandwich magnetic bead immunoassay: 20 μL capture beads is pipetted into wells 1-4 on a 96-well plate. 5 μL assay buffer is pipetted into well 2. 5 μL of exchanged tetramer is pipetted into well 4. Additional exchanged tetramers may be pipetted into wells 5 and up. The plate is protected from light and shaken for 45 min at 550 rpms/min. 150 μL of assay buffer is dispensed into each well. The plate is placed on a plate magnet and the beads are permitted to sediment for at least 5 minutes.
Separately, a preparation of the FITC-conjugated anti-tag antibody is prepared at 10 μg/mL. 25 μL of the FITC-conjugated anti-tag antibody is pipetted into each well except well 1, and the plate is again protected from light and shaken for 45 min at 550 rpms/min.
150 μL of assay buffer is dispensed into each well, and the plate is placed on a plate magnet. The beads are permitted to sediment for at least 5 minutes. The beads are resuspended in sheath fluid and transferred to labeled flow cytometer tubes (referred to herein by the number of the well they are drawn from), which are then analyzed on a flow cytometer.
Flow Cytometry Analysis: Unused magnetic beads are used to set FSC (forward-scattered light) and SSC (side-scattered light) voltages and gains such that a live gate selects single beads and excludes doublets and larger clumps, see FIG. 1A. […] Tube 1 is run to perform compensation in FL1 in order to eliminate fluorochrome interference in the FITC channel, see FIG. 1C. The FL1 MFI is set to the first log decade, close to that obtained with beads only. Tube 2, which contains beads that have captured no tetramer and therefore no tagged peptide, is run to calibrate the level for 0% tagged peptide, i.e. 100% peptide exchange (see FIG. 1D). In the exemplary data provided here, the MFI is 0.287. Tube 3, which contains a solution where all tetramers display the original tagged peptide, is run to calibrate the level for 100% tagged peptide, i.e. 0% peptide exchange (see FIG. 1E). In the exemplary data provided here, the MFI is 20.4. Tubes 4 and up are run to evaluate the samples. Peptide exchanged tetramers will display various quantities of tagged peptides, depending on their binding affinities to HLA-A*02:01 molecules. Therefore, the FL1 MFI measured will be intermediary between MFI values obtained with tubes 2 and 3. See FIG. 1F, where in the exemplary data provided here, the MFI is 9.37.
(§1) Peptide exchange data were obtained after incubating peptides (20 μM final) with tetramer for 4 hours, then followed by capture with anti HLA-ABC beads and staining with an anti-DNP FITC antibody.

Assay [2] has as its target T2, HLA-A*02:01 tetramers (Homo sapiens, UniProt P04439, D140Y/D185E/D98H/E176V/E277Q/G131W/G231S/I119V/I121R/I166T/I218V/L300P/L318F/N151K/N90K/P208A/P217A/Q86G/Q94H/R138H/R169H/T345S).
T2 construct: prepared as known in the art, for instance by deletion of the transmembrane domain and the cytoplasmic domain; made in house
The experiment in a line: Comparison of exiting peptides: peptide exchange on HLA-A*02:01 tetramers against […]. It counts as binding. The settings on record: GM 10 mM; YLLEFTPPV at 10 and 1 μg/mL; compared with ILKEK(DNP)VHGV. Here is the method:
Peptide exchange was performed using two HLA-A*02:01 tetramers at 280 μg/mL made with peptides ILKEKK(DNP)VHGV (SEQ ID NO: 3) and ILKEK(DNP)VHGV (SEQ ID NO: 4). […] Tetramers were captured with beads conjugated with an anti HLA-ABC specific antibody at 10 μg/mL.

In assay [3] the target is T3, H-2 Kb tetramers (Mus musculus, UniProt P01901).
T3 construct: prepared as known in the art, for instance by deletion of the transmembrane domain and the cytoplasmic domain; made in house
T3 sequence (P01901 22-305 limits assumed): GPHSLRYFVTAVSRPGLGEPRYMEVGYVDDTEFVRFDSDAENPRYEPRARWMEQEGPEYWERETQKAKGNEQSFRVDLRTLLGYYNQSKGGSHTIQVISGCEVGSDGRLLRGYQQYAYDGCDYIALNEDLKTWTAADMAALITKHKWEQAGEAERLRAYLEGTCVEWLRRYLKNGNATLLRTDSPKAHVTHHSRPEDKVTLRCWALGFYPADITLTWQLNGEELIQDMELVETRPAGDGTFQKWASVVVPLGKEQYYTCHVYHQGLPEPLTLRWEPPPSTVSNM
The experiment in a line: Selection of exiting peptide: peptide exchange on H-2 Kb tetramers with competing peptides. It counts as binding, murine. Conditions: H-2 Kb tetramers 280 μg/mL; competing peptides 10 μg/mL. The procedure: Peptide exchange was performed using two H-2 Kb tetramers at 280 jig/mL that were made with peptides MTYK(DNP)FPVT (SEQ ID NO: 1) and YTVK(DNP)FALV (SEQ ID NO: 2). Exchange was performed in the presence of competing peptides at 10 μg/mL. Tetramers were captured with beads conjugated with an anti H-2 Kb specific antibody. Detection was performed with a FITC-conjugated anti-DNP antibody at 10 μg/mL. The results are depicted in FIG. 6, where the exiting peptides are labeled as follows: […]

Assay [4] addresses T4, HLA-A*24:02 tetramers with exiting peptide TFQRK(DNP)PAAF (Homo sapiens, UniProt P04439, D101N/D140Y/D185E/E176V/E190D/F33S/G103R/G107R/I119L/I121M/I306V/K335N/L105A/L180Q/L300P/N151K/N90K/Q86E/Q94H/R106L/R138H/R89G/T104I/T345S/V100E/W191G/Y123F).
T4 construct: prepared as known in the art, for instance by deletion of the transmembrane domain and the cytoplasmic domain; made in house
Kind of assay: HLA-A*24:02 peptide exchange quantitation. The settings on record: competing peptide 20 μM final, 4 hours; HLA-A*24:02 tetramer. It is filed as binding. The procedure: as §1

In assay [5] the target is T5, HLA-A*02:01 Tetramers containing exiting peptide ILKEKK(DNP)VHGV (Homo sapiens, UniProt P04439, D140Y/D185E/D98H/E176V/E277Q/G131W/G231S/I119V/I121R/I166T/I218V/L300P/L318F/N151K/N90K/P208A/P217A/Q86G/Q94H/R138H/R169H/T345S).
T5 construct: prepared as known in the art, for instance by deletion of the transmembrane domain and the cytoplasmic domain; made in house
Kind of assay: Quantified peptide exchange assay of vaccine and individual peptide. It counts as binding. The procedure:
Quantified Peptide Exchange Assay: HLA-A*02:01 Tetramers were prepared containing exiting peptide ILKEKK(DNP)VHGV (SEQ ID NO: 3). Peptide exchange was performed against (a) the peptide prepared individually in a buffered solution or (b) in the DPX-Survivac vaccine prepared in an aqueous formulation. HLA-A*02:01 tetramer, and peptide exchange factor glycylmethionine were mixed with each peptide to be tested. Peptide exchange was then quantified by the flow cytometric sandwich immunoassay using magnetic capture beads.
Comparison of Peptide Exchange Assay to T2 HLA-A2 Shift assay: The peptide exchange assay described herein and the T2 HLA-A2 shift assay were conducted on various amounts of peptide per reaction. The results are presented in FIGS. 12D (T2 HLA-A2 shift assay) and 12E (peptide exchange assay), with the three independent repeats shown in diamonds, squares, and triangles. The T2 Shift assay provides a high degree of linearity when applied to the samples containing 10 μg/reaction to 110 μg/reaction of SurA2.M peptide.

Assay [6] addresses H-2 Kb tetramers (PE, APC or BV421) with exiting peptide TFQRK(DNP)PAAF (Mus musculus, UniProt P01901). The settings on record: glycyl-methionine, 4 hours room temperature; for Exchange rate, APC: H-2 Kb APC tetramer; for Exchange rate, BV421: H-2 Kb BV421 tetramer; for Exchange rate, PE: H-2 Kb PE tetramer. Here is the method: The mixtures were incubated for 4 hours at room temperature, protected from light.
20 μL of magnetic capture beads were added to wells of a v-bottom 96-well plate for each tested peptide plus wells for control samples. Each test well received 5 μL from the peptide exchange samples. The plate was shaken for 45 minutes at 550 rpm, room temperature, protected from light. After bead rinse, wells received 25 μL of 1× exiting peptide antibody. The plate was shaken for 45 minutes at 550 rpm, room temperature, protected from light. Beads were rinsed, resuspended in 1× assay buffer and run on a FC500 Flow Cytometer. Single beads were gated on FSC vs. SSC and MFI were measured on 500 events per test. Peptide exchange rate was calculated using a calibration curve generated with MFI values from controls.

On to RIKDFLRNL, for which the “% peptide exchange” value in assay [1] turned out to be 34.0%. With IMQIMPYGC, the “% peptide exchange” value in assay [1] worked out at 59.9%. Take ILKEKK(Dnp)VHGV: in assay [2], the “Performance of the exiting peptide in peptide exchange” value is recorded as “performs better in peptide exchange”. Consider LTLGEFLKL, for which the “% peptide exchange” value in assay [1] is listed as 43.6%. Still for that read-out and setting: as for EYILSLEEL, the figure is 24.2%. With AVLDGLLSL, the “% peptide exchange” value in assay [1] was found to be 90.7%. On the same count and under the same terms, in the case of CSLWNGPHL it was 55.2%; in that of WMHHNMDLI, 89.2%. Still for that read-out and setting: in the case of FLYDDNQRV it was 91.2%.

As for YTVK(DNP)FALV, the “Exchangeability of tetramers built with the exiting peptide” value in assay [3] is “not possible”. As for IMQLMPFGC, the “% peptide exchange” value in assay [1] is given as 40.9%. Same read-out and setting: in the case of WMHKVPASL it was 87.9%; in that of CINGVCWTV, 85.3%.

Turning to YLLEFTPPV, the “% peptide exchange” value in assay [1] was determined as 91.9%.

Regarding GLADQLIHL, the “% peptide exchange” value in assay [4] is given as 0.86%; in assay [1] it was 91.4%. Take IRLRPGGKK: the “% peptide exchange” value in assay [1] was 25.0%.

With RVRAYTYSK, the “% peptide exchange” value in assay [4] is 10.32%. MTYK(DNP)FPVT: the “Exchangeability of tetramers built with the exiting peptide” value in assay [3] is on record as “allowed exchange with a wide range of peptides”. Turning to RAHYNIVTF, the “% peptide exchange” value in assay [4] was 85.58%.

For the substance LNMADKKET, the “% peptide exchange” value in assay [4] was found to be 10.32%. As to AMAPRTLLL, the “% peptide exchange” value in assay [4] was 81.62%. On to SYVPSAEQI, for which, in assay [1], the “% peptide exchange” value amounted to 25.0%. For the substance ALALEVGEL, the “% peptide exchange” value in assay [1] was found to be 85.1%. LMLGEFLKL [SurA2.M]: the “Peptide exchange rate, individually in buffered solution versus in the vaccine” value in assay [5] (three independent repeats, Student's t-test at p<0.05) is “not statistically distinguishable”. Further, in assay [5] (various amounts of peptide per reaction), the “Upper limit of quantification of the peptide exchange assay” value is recorded as “below 0.2 μg/reaction”. On to RYMRWTYRF, for which, in assay [4], the “% peptide exchange” value turned out to be 101.29%. As to SLPPPGTRV, the “% peptide exchange” value in assay [1] is reported as 86.6%.

Consider ALLAVGATK, for which the “% peptide exchange” value in assay [1] is given as 25.7%. SIYRYYGL [Reference Peptide]: in assay [6] (Reference Peptide 2 μM), the “Exchange rate, APC” value is reported as 97.08; the “Exchange rate, BV421” value came out at 90.56; the “Exchange rate, PE” value is 92.72. In addition, in assay [6] (Reference Peptide 20 μM), the “Exchange rate, APC” value is 99.13; the “Exchange rate, BV421” value worked out at 97.34; the “Exchange rate, PE” value came out at 100.

Turning to ATVQGQNLK, the “% peptide exchange” value in assay [1] worked out at 27.9%.

Regarding ATDALMTGY, the “% peptide exchange” value in assay [4] is 7.74%. Same read-out and setting: as for IYSTVASSL, the figure is 100.98%; as for FLSELTQQL, 23.65%. For the substance GLAVVTHGL, the “% peptide exchange” value in assay [1] is reported as 91.0%. Take GYSLKLSKL: in assay [4], the “% peptide exchange” value was found to be 37.93%.
